Source: patent publication US11981617B2, “Ketamine pamoate and use thereof” (Alar Pharmaceuticals Inc., priority 2019, dated 2024)
Counter-ions that a name gives are not always drawn.

Legend:
[1] = in vivo; cited from earlier work
DEX-treated mice [2] = experiment: Forced swimming test (FST) in DEX-induced depression-like animal model; type: in vivo, ICR mice; conditions: 120 mg/kg of ketamine free-base; for onset of antidepressant effect on FST: single injection; for immobility time in FST: single s.c. injection
Method: (§1) ICR mice were intraperitoneally injected with saline or DEX at postnatal day 1 to 3 (P1-P3) with dose decrement of 0.5 mg/kg, 0.3 mg/kg, and 0.1 mg/kg, respectively. The drugs for each group or saline were administered subcutaneously at postnatal day 35, P35 (i.e., dosing day 0, D0), and forced swimming test (FST) was conducted on dosing day 1 (D1, P36) and dosing day 10 (P45) after drug administration. Evaluation of sedation behavior was also conducted by sedation rating scale from the time immediately post injection to dosing day 14 (P49) after drug administration.
(§2) Neonatal ICR mice (BioLASCO, Taipei, Taiwan) were intraperitoneally injected with saline or DEX on postnatal day 1, 2, and 3 (P1, P2, and P3) at doses of 0.5 mg/kg, 0.3 mg/kg, and 0.1 mg/kg, respectively. […] The dugs were then subcutaneously injected into mice of the corresponding groups at postnatal day 35, while the mice of the Control and Saline groups were injected with equal volumes of 0.9% saline. Drugs for administration were prepared in phosphate-buffered saline (PBS), and then well mixed by high speed vortex before injection.
Antidepressant effects were evaluated by forced swimming test (FST), which performed on dosing day 1 (P36) and dosing day 10 (P45) after drug administration. The mice of all groups were trained for swimming before drug administration. During the FST, mice were individually placed into 5 L glass cylinders (height 27 cm, diameter 18 cm) filled with 4 L of water (23±1° C.). The total duration of immobility time during 5 minutes of FST was observed. Results were presented as mean±SEM. Student's t-test was utilized to analyze Saline group (DEX-treated mouse group injected with saline) versus the other groups at each time point. * p<0.05, ** p<0.01, and *** p<0.001 indicate significant differences compared to the Saline group.

DEX-treated mice [3] = experiment: Sedation behavior by rodent sedation rating scale; type: in vivo, ICR mice; conditions: s.c., 120 mg/kg of ketamine free-base; for sedation behavior (rodent sedation rating scale): immediately post injection to 14 days
Method: as §1, §2
Furthermore, sedation behavior was also evaluated by rodent sedation rating scale (Table 6) immediately post drug administration to 14 days.

[4] = tested on: female Sprague Dawley (SD) rats; experiment: 3-month repeat-dose toxicology study; conditions: for neuronal morphology in prefrontal cortex / bladder mucosal folds (histopathology) / bladder apical epithelial surfaces (histopathology): total 1440 mg/kg of ketamine free-base; for neuronal morphology in prefrontal cortex: brain slices; for bladder mucosal folds (histopathology): magnification x40; for bladder apical epithelial surfaces (histopathology): magnification x400; for injection site observation (skin surface) / injection site histopathology: inflammatory cells at higher magnification / injection site histopathology: tissue morphology: KET 60 mg/kg twice weekly, KEP 480 mg/kg monthly; for injection site histopathology: inflammatory cells at higher magnification / injection site histopathology: tissue morphology: HE staining
beagle dogs = experiment: Injection site evaluation by Draize skin erythema/eschar rating scale; type: in vivo; conditions: male beagle dogs, individual animals, single 44 mg/kg of ketamine free-base, Day 1, 2, 4, 8, 15
Method: A specific in vivo study to evaluate the injection site reaction of KEP was conducted in beagle dogs ([…] LABES, CO., LTD. Ina, Japan).

Compound	LD50 dose [1] [mg/kg]	onset of antidepressant effect on FST (DEX-treated mice [2])	immobility time in FST (DEX-treated mice [2]; day 1 after administration)	immobility time in FST (DEX-treated mice [2]; day 10 after administration)	sedation behavior (rodent sedation rating scale) (DEX-treated mice [3])	time to full recovery from sedation (DEX-treated mice [3]; post administration) [h]	neuronal morphology in prefrontal cortex ([4]; 12 weeks)	bladder mucosal folds (histopathology) ([4]; 12 weeks)	bladder apical epithelial surfaces (histopathology) ([4]; 12 weeks)	pathological bladder and brain changes ([4]; high dose subchronic treatment for 12 weeks)	injection site observation (skin surface) ([4]; s.c., 12 weeks)	injection site histopathology: inflammatory cells at higher magnification ([4]; s.c., 12 weeks)	injection site histopathology: tissue morphology ([4]; s.c., 12 weeks)	maximum tolerated dose (MTD) ([4]; subcutaneous injection)	Draize skin erythema/eschar observation at injection site (beagle dogs)	tolerability of single subcutaneous injection ([4]; 480 mg/kg of ketamine free-base)	density of inflammatory cells at injection site under microscopic fields ([4]; s.c., 12 weeks, KEP 480 mg/kg monthly versus KET 60 mg/kg twice weekly)
CNC1(c2ccccc2Cl)CCCCC1=O (centres unmarked) [ketamine]	229	–	–	–	–	–	–	–	–	–	–	–	–	–	–	–	–
CN[C@@]1(c2ccccc2Cl)CCCCC1=O [R-KEP, R-ketamine pamoate]	–	rapid-onset antidepressant effects	reduced the immobility times	reduced the immobility times	normal behavior	–	–	–	–	–	–	–	–	–	–	–	–
CNC1(c2ccccc2Cl)CCCCC1=O (centres unmarked) [KET, ketamine HCl, reference compound]	–	rapid-onset antidepressant effects	reduced the immobility times	reduced the immobility times	heavy sedation-related behavior	2	granule cells were lack, and the morphology of pyramidal cells changed to be small or shrinking like in process of degradation	protrusive and enlarged mucosal folds	smooth	bladder fibrosis and neuronal morphology alteration in brain	injection site erythema, which gradually became open wound	infiltration of inflammatory cells in connective tissues	morphology damage on epidermis, dermis, subcutis, and muscle tissues	60 mg/kg of ketamine free-base	–	–	–
R, S-ketamine pamoate [KEP]	–	rapid-onset antidepressant effects	reduced the immobility times	reduced the immobility times	normal behavior	–	normal	thin mucosal folds	rough	–	normal skin surfaces	infiltration of inflammatory cells in connective tissues	normal morphology of skin slices	–	No erythema	well tolerable	much less than KET group
CN[C@]1(c2ccccc2Cl)CCCCC1=O [S-KEP, S-ketamine pamoate]	–	rapid-onset antidepressant effects	reduced the immobility times	reduced the immobility times	normal behavior	–	–	–	–	–	–	–	–	–	–	–	–
